Data as given in patent US9296725B2, “Heterocyclyl pyrimidine analogues as TYK2 inhibitors” (Cellzome Limited, priority 2012, dated 2016).
Like-named read-outs stand apart in the source and are kept apart here.

Tests used:
JAK2 = target: T1, JAK2 (Homo sapiens, UniProt O60674); experiment: Kinobeads assay, JAK2 (competition binding in mixed Molt4/Ramos cell lysate, dot blot detection); conditions: read-out: JAK2 Band (Kinobeads assay potency, IC50)
T1 construct: endogenous in cells; host or cells: Molt4 (ATCC CRL-1582) and Ramos (ATCC CRL-1596), mixed lysate 1:2
Protocol: (§1) The compounds of the present invention as described in the previous examples were tested in a Kinobeads™ assay as described for ZAP-70 (WO-A 2007/137867). Briefly, test compounds (at various concentrations) and the affinity matrix with the immobilized aminopyrido-pyrimidine ligand 24 were added to cell lysate aliquots and allowed to bind to the proteins in 10 the lysate sample. After the incubation time the beads with captured proteins were separated from the lysate. Bound proteins were then eluted and the presence of TYK2 and JAK2 was detected and quantified using specific antibodies in a dot blot procedure and the Odyssey infrared detection system. Dose response curves for individual kinases were generated and IC50 values calculated. Kinobeads™ assays have been previously described (WO-A 2007/137867; WO-A 2006/134056).
(§2) The affinity matrix was washed two times with 15 mL of 1×DP buffer containing 0.2% NP40 (IGEPAL® CA-630, Sigma, #13021) and then resuspended in 1×DP buffer containing 0.2% NP40 (3% beads slurry). 5×DP buffer: 250 mM Tris-HCl pH 7.4, 25% Glycerol, 7.5 mM MgCl2, 750 mM NaCl, 5 mM Na3VO4; filter the 5×DP buffer through a 0.22 μm filter and store in aliquots at −80° C. The 5×DP buffer is diluted with H2O to 1×DP buffer containing 1 mM DTT and 25 mM NaF.
(§3) Stock solutions of test compounds were prepared in DMSO. In a 96 well plate 30 μL solution of diluted test compounds at 5 mM in DMSO were prepared. Starting with this solution a 1:3 dilution series (9 steps) was prepared. For control experiments (no test compound) a buffer containing 2% DMSO was used.
(§4) Molt4 cells (ATCC catalogue number CRL-1582) and Ramos cells (ATCC catalogue number CRL-1596) were grown in 1 L Spinner flasks (Integra Biosciences, #182101) in suspension in RPMI 1640 medium (Invitrogen, #21875-034) supplemented with 10% Fetal Bovine Serum (Invitrogen) at a density between 0.15×10^6 and 1.2×10^6 cells/mL. Cells were harvested by centrifugation, washed once with 1×PBS buffer (Invitrogen, #14190-094) and cell pellets were frozen in liquid nitrogen and subsequently stored at −80° C. Cells were homogenized in a Potter S homogenizer in lysis buffer: 50 mM Tris-HCl, 0.8% NP40, 5% glycerol, 150 mM NaCl, 1.5 mM MgCl2, 25 mM NaF, 1 mM sodium vanadate, 1 mM DTT, pH 7.5. One complete EDTA-free tablet (protease inhibitor cocktail, Roche Diagnostics, 1873580) per 25 mL buffer was added. The material was dounced 10 times using a mechanized POTTER S, transferred to 50 mL falcon tubes, incubated for 30 minutes on ice and spun down for 10 minutes at 20,000 g at 4° C. (10,000 rpm in Sorvall SLA600, precooled). The supernatant was transferred to an ultracentrifuge (UZ)-polycarbonate tube (Beckmann, 355654) and spun for 1 hour at 100.000 g at 4° C. (33.500 rpm in Ti50.2, precooled). The supernatant was transferred again to a fresh 50 mL falcon tube, the protein concentration was determined by a Bradford assay (BioRad) and samples containing 50 mg of protein per aliquot were prepared. The samples were immediately used for experiments or frozen in liquid nitrogen and stored frozen at −80° C.
(§5) Cell lysate (approximately 50 mg protein per plate) was thawed in a water bath at room temperature and then stored on ice. To the thawed cell lysate 1×DP 0.8% NP40 buffer containing protease inhibitors (1 tablet for 25 mL buffer; EDTA-free protease inhibitor cocktail; Roche Diagnostics 1873580) was added in order to reach a final protein concentration of 10 mg/mL total protein. The diluted cell lysate was stored on ice. Mixed Molt4/Ramos lysate was prepared by combining one volume of Molt4 lysate and two volumes of Ramos lysate (ratio 1:2).
(§6) To a 96 well filter plate (Multiscreen HTS, BV Filter Plates, Millipore #MSBVN1250) were added per well: 100 μL affinity matrix (3% beads slurry), 3 μL of compound solution, and 50 μL of diluted lysate. Plates were sealed and incubated for 3 hours in a cold room on a plate shaker (Heidolph tiramax 1000) at 750 rpm. […]

TYK2 = target: T2, TYK2 (Homo sapiens, UniProt P29597); experiment: Kinobeads assay, TYK2 (competition binding in mixed Molt4/Ramos cell lysate, dot blot detection)
T2 construct: endogenous in cells; host or cells: Molt4 (ATCC CRL-1582) and Ramos (ATCC CRL-1596), mixed lysate 1:2
Protocol: as §1, §2, §3, §4, §5, §6

[1] = Kinobeads assay, Molt4/Ramos lysate, read-out: TYK2 Band (Kinobeads assay potency, IC50)

T1 sequence (O60674 whole entry): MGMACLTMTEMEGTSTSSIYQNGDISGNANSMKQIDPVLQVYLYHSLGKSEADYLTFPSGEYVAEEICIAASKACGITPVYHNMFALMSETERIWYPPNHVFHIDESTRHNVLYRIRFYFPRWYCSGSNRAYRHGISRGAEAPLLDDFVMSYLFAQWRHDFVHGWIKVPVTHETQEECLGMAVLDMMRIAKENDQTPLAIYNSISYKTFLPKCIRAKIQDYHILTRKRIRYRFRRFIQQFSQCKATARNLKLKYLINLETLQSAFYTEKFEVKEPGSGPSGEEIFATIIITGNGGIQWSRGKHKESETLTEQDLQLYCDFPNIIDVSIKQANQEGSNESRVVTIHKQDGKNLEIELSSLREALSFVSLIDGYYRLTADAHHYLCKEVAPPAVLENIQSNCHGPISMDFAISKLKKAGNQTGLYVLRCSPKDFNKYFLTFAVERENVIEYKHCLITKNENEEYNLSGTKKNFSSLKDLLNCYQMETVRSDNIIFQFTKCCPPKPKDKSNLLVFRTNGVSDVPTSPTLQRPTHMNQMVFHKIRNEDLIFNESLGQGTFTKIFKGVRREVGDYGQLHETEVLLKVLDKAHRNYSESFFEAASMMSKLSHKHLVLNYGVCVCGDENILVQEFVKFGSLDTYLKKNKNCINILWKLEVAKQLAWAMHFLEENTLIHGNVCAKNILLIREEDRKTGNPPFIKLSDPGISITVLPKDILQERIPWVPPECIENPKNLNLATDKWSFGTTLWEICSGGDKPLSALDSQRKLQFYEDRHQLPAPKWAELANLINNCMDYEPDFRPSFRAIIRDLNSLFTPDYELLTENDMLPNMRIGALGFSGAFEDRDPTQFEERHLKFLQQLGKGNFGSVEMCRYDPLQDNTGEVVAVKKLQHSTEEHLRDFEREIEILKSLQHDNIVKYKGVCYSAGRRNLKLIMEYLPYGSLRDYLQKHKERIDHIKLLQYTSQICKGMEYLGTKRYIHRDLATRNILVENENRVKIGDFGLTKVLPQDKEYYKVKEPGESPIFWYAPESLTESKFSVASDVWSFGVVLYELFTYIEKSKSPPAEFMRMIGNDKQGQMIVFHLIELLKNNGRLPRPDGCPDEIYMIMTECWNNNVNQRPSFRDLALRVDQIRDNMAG
T2 sequence (P29597 whole entry): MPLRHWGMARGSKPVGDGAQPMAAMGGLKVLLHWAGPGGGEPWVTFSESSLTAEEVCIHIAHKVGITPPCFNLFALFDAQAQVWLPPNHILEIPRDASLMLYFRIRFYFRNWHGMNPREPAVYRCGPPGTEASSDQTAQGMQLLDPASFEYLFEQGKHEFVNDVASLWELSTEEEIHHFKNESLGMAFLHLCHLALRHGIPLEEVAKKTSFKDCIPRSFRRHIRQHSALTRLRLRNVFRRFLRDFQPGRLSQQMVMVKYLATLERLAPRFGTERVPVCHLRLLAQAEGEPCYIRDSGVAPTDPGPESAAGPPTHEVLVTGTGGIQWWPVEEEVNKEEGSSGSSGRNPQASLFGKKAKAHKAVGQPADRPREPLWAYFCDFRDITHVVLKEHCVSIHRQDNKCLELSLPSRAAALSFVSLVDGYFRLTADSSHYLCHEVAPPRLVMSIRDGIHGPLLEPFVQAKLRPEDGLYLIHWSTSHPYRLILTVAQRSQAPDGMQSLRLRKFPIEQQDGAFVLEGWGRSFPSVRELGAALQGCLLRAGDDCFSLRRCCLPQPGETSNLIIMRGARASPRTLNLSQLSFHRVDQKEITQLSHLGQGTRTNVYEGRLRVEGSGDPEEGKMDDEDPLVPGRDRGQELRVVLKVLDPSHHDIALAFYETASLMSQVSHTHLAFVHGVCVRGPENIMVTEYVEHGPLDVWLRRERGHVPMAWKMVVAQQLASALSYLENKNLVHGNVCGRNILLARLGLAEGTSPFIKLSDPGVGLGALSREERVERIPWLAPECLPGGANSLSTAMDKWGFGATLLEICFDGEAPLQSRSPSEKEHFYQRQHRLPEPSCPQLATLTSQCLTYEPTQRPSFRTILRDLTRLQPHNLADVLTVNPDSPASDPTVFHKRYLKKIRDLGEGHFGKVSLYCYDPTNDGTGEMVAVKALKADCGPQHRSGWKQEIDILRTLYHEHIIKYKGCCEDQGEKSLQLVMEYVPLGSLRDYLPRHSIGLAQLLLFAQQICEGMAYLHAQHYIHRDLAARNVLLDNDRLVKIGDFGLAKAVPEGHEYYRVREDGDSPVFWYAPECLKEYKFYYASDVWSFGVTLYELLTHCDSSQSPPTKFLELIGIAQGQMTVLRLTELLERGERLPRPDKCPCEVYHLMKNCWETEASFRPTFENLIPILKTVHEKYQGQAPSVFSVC

## CC(C)NC(=O)Cn1cc(Nc2nccc(NCc3c(F)cc(C#N)cc3F)n2)cn1 [Example I-1, 2-(4-((4-((4-cyano-2,6-difluorobenzyl)amino)pyrimidin-2-yl)amino)-1H-pyrazol-1-yl)-N-isopropylacetamide]
JAK2
  IC50: 1000 to 10000 nM
TYK2; [1]
  IC50: 10 to 100 nM

## C[C@@H](CO)NC(=O)Cn1cc(Nc2nccc(NCc3c(Cl)cccc3Cl)n2)cn1 [Example I-3, (S)-2-(4-((4-((2,6-dichlorobenzyl)amino)pyrimidin-2-yl)amino)-1H-pyrazol-1-yl)-N-(1-hydroxypropan-2-yl)acetamide]
JAK2
  IC50: 1000 to 10000 nM
TYK2; [1]
  IC50: 10 to 100 nM
TYK2; read-out: TYK2 IC50
  IC50: < 100 nM

## O=C(Cn1cc(Nc2ncc(F)c(NCc3c(F)cc(F)cc3F)n2)cn1)NC1CC1 [Example I-4, N-cyclopropyl-2-(4-((5-fluoro-4-((2,4,6-trifluorobenzyl)amino)pyrimidin-2-yl)amino)-1H-pyrazol-1-yl)acetamide]
JAK2
  IC50: 1000 to 10000 nM
TYK2; [1]
  IC50: 10 to 100 nM

## CC(C#N)NC(=O)Cn1cc(Nc2nccc(NCc3c(F)cc(F)cc3F)n2)cn1 (stereo not drawn) [Example I-5, N-(1-cyanoethyl)-2-(4-((4-((2,4,6-trifluorobenzyl)amino)pyrimidin-2-yl)amino)-1H-pyrazol-1-yl)acetamide]
JAK2
  IC50: > 10000 nM
TYK2; [1]
  IC50: 10 to 100 nM

## CCNC(=O)Cn1cc(Nc2nccc(NCc3c(F)cc(F)cc3F)n2)cn1 [Example I-6, N-ethyl-2-(4-((4-((2,4,6-trifluorobenzyl)amino)pyrimidin-2-yl)amino)-1H-pyrazol-1-yl)acetamide]
JAK2
  IC50: 1000 to 10000 nM
TYK2; [1]
  IC50: 10 to 100 nM

## Cc1cnc(Nc2cnn(CCO)c2)nc1NCc1ccc(S(N)(=O)=O)cc1 [Example I-8]
JAK2
  IC50: 1000 to 10000 nM
TYK2; [1]
  IC50: 10 to 100 nM

## NS(=O)(=O)c1ccc(CNc2nc(Nc3cnn(CCO)c3)ncc2F)cc1 [Example I-9]
JAK2
  IC50: > 10000 nM
TYK2; [1]
  IC50: 10 to 100 nM

## NS(=O)(=O)c1ccc(CNc2nc(Nc3cnn(CC(=O)NC4CC4)c3)ncc2Cl)cc1 [Example I-10]
JAK2
  IC50: > 10000 nM
TYK2; [1]
  IC50: 10 to 100 nM

## NS(=O)(=O)c1ccc(CNc2nc(Nc3cnn(CC(=O)N4CCOCC4)c3)ncc2F)cc1 [Example I-11]
JAK2
  IC50: > 10000 nM
TYK2; [1]
  IC50: 10 to 100 nM

## CNC(=O)Cn1cc(Nc2ncc(F)c(NCc3c(F)ccc(OC)c3F)n2)cn1 [Example I-12]
JAK2
  IC50: 1000 to 10000 nM
TYK2; [1]
  IC50: 10 to 100 nM

## COc1ccc(F)c(CNc2nc(Nc3cnn(CC(=O)N(C)C)c3)ncc2F)c1F [Example I-13]
JAK2
  IC50: 1000 to 10000 nM
TYK2; [1]
  IC50: ≤ 10 nM

## CN(C)C(=O)Cn1cc(Nc2ncc(F)c(NCc3cccc(OC(F)F)c3)n2)cn1 [Example I-14]
JAK2
  IC50: 1000 to 10000 nM
TYK2; [1]
  IC50: 10 to 100 nM

## OCCn1cc(Nc2ncc(Cl)c(NCc3c(F)cc(F)cc3F)n2)cn1 [Example I-15]
JAK2
  IC50: 100 to 1000 nM
TYK2; [1]
  IC50: 10 to 100 nM

## CN(C)C(=O)Cn1cc(Nc2ncc(Cl)c(NCc3c(F)cc(F)cc3F)n2)cn1 [Example I-16]
JAK2
  IC50: 1000 to 10000 nM
TYK2; [1]
  IC50: 10 to 100 nM

## OCCn1cc(Nc2ncc(F)c(NCc3c(F)cc(F)cc3F)n2)cn1 [Example I-17]
JAK2
  IC50: 1000 to 10000 nM
TYK2; [1]
  IC50: 10 to 100 nM

## CN(C)C(=O)Cn1cc(Nc2ncc(F)c(NCc3c(F)cc(F)cc3F)n2)cn1 [Example I-18]
JAK2
  IC50: 1000 to 10000 nM
TYK2; [1]
  IC50: 10 to 100 nM

## Cc1cnc(Nc2cnn(CC(=O)N(C)C)c2)nc1NCc1c(F)cc(F)cc1F [Example I-19]
JAK2
  IC50: 100 to 1000 nM
TYK2; [1]
  IC50: 10 to 100 nM

## COc1ccc(F)c(CNc2nc(Nc3cnn(CC(=O)N(C)C)c3)ncc2C)c1F [Example I-20]
JAK2
  IC50: 100 to 1000 nM
TYK2; [1]
  IC50: ≤ 10 nM

## Cc1cnc(Nc2cnn(CC(=O)N3CCOCC3)c2)nc1NCc1c(F)cc(F)cc1F [Example I-21]
JAK2
  IC50: 1000 to 10000 nM
TYK2; [1]
  IC50: ≤ 10 nM

## COc1ccc(F)c(CNc2nc(Nc3cnn(CC(=O)N4CCOCC4)c3)ncc2C)c1F [Example I-22]
JAK2
  IC50: 100 to 1000 nM
TYK2; [1]
  IC50: ≤ 10 nM

## Cc1cnc(Nc2cnn(CC(=O)N3CCOCC3)c2)nc1NCc1cccc(OC(F)F)c1 [Example I-23]
JAK2
  IC50: 1000 to 10000 nM
TYK2; [1]
  IC50: ≤ 10 nM

## COc1ccc(F)c(CNc2nc(Nc3cnn(CC(=O)N4CCOCC4)c3)ncc2F)c1F [Example I-24]
JAK2
  IC50: 1000 to 10000 nM
TYK2; [1]
  IC50: ≤ 10 nM

## O=C(Cn1cc(Nc2ncc(F)c(NCc3c(F)cc(F)cc3F)n2)cn1)N1CCOCC1 [Example I-26]
JAK2
  IC50: 1000 to 10000 nM
TYK2; [1]
  IC50: ≤ 10 nM

## O=C(Cn1cc(Nc2nccc(NCc3c(F)cc(F)cc3F)n2)cn1)N1CCOCC1 [Example I-27]
JAK2
  IC50: 1000 to 10000 nM
TYK2; [1]
  IC50: 10 to 100 nM

## O=C(Cn1cc(Nc2nccc(NCc3c(F)cccc3F)n2)cn1)N1CCOCC1 [Example I-28]
JAK2
  IC50: 1000 to 10000 nM
TYK2; [1]
  IC50: ≤ 10 nM

## COc1cc(F)c(CNc2nc(Nc3cnn(CC(=O)N4CCOCC4)c3)ncc2C)c(F)c1 [Example I-29]
JAK2
  IC50: 1000 to 10000 nM
TYK2; [1]
  IC50: ≤ 10 nM

## NS(=O)(=O)c1ccc(CNc2nc(Nc3cnn(CC(=O)N4CCCCC4)c3)ncc2F)cc1 [Example I-30]
JAK2
  IC50: > 10000 nM
TYK2; [1]
  IC50: 10 to 100 nM

## NS(=O)(=O)c1cc(F)c(CNc2nc(Nc3cnn(CC(=O)N4CCCCC4)c3)ncc2F)c(F)c1 [Example I-31]
JAK2
  IC50: 1000 to 10000 nM
TYK2; [1]
  IC50: 10 to 100 nM

## Cc1cnc(Nc2cnn(CC(=O)NC(C)C)c2)nc1NCc1c(F)cc(F)cc1F [Example I-32]
JAK2
  IC50: 1000 to 10000 nM
TYK2; [1]
  IC50: ≤ 10 nM

## Cc1cnc(Nc2cnn(CC(=O)NC3CCC3)c2)nc1NCc1c(F)cc(F)cc1F [Example I-33]
JAK2
  IC50: 1000 to 10000 nM
TYK2; [1]
  IC50: 10 to 100 nM

## Cc1cnc(Nc2cnn(CC(=O)N3CCOC(C)(C)C3)c2)nc1NCc1c(F)cc(F)cc1F [Example I-34]
JAK2
  IC50: 1000 to 10000 nM
TYK2; [1]
  IC50: ≤ 10 nM

## Cc1cnc(Nc2cnn(CC(=O)N[C@H](C)CO)c2)nc1NCc1c(F)cc(F)cc1F [Example I-35]
JAK2
  IC50: 100 to 1000 nM
TYK2; [1]
  IC50: ≤ 10 nM

## Cc1cnc(Nc2cnn(CC(=O)N[C@@H](C)CO)c2)nc1NCc1c(F)cc(F)cc1F [Example I-36]
JAK2
  IC50: 100 to 1000 nM
TYK2; [1]
  IC50: ≤ 10 nM

## Cc1cnc(Nc2cnn(CC(=O)NC3CCOC3)c2)nc1NCc1c(F)cc(F)cc1F (stereo not drawn) [Example I-37]
JAK2
  IC50: 100 to 1000 nM
TYK2; [1]
  IC50: 10 to 100 nM

## CC(C)NC(=O)Cn1cc(Nc2ncc(F)c(NCc3c(F)cc(F)cc3F)n2)cn1 [Example I-38]
JAK2
  IC50: 1000 to 10000 nM
TYK2; [1]
  IC50: ≤ 10 nM
TYK2; read-out: TYK2 IC50
  IC50: < 100 nM
